What was measured:
[1] = system: C57BL/6J-TgN(SOD1-G93A)1Gur^dl transgenic mice; assay: Motor nerve conduction, tibialis anterior CMAP amplitude, in transgenic mice model for amyotrophic lateral sclerosis; format: in vivo; settings: postnatal day 45 to 85; for increase in the amplitude of the tibialis anterior CMAP compared with the vehicle control group: 100% = mean CMAP amplitude of wild type control group
Description: (§1) Transgenic C57BL/6J-TgN(SOD1-G93A)1Gur^dl mice were originally purchased from The Jackson Laboratories (Bar Harbor, Me.) and routinely identified as positive carriers of the transgene at early postnatal age by PCR amplification (Garney et al. Motor neuron degeneration in mice that express a human Cu,Zn superoxide dismutase mutation. Science 1994. 264(5166):1772-5). The animal colony was kept under controlled temperature (22±2° C.), humidity (40-60%) and light (12 h cycles), and treated in accordance with the European Community Council directive on animal welfare (86/609/EEC).
At 40 days postnatal age, mice identified as positive carriers of the SOD1-G93A transgene were randomly assigned to a diazoxide-treatment or control group. An additional group composed by wild type C57BL/6J was also used as absolute control for nerve conduction measurements. The treatment started at postnatal day 45 and lasted until postnatal day 85. The drug was administered daily orally by gavage (p.o.), in a dose volume of 200 μl. […] Each group consists of 8 animals.
At postnatal day 85 days, animals were tested for nerve conduction measurament. For motor nerve conduction tests, the sciatic nerve was stimulated percutaneously by means of single pulses of 0.02 ms duration (Grass S88) delivered through a pair of needle electrodes placed at the sciatic notch. The Compound Muscle Action Potential (CMAP, M wave) was recorded from the tibialis anterior (TA) with microneedle electrodes. […] To ensure reproducibility, the recording needles were placed under microscope to secure the same placement on all animals guided by anatomical landmarks. During the tests, the mice body temperature was kept constant by means of a thermostated warming pad.

[2] = system: C57BL/6J-TgN(SOD1-G93A)1Gur^dl transgenic mice; assay: Disease onset (time of peak body weight) in transgenic mice model for amyotrophic lateral sclerosis; format: in vivo; settings: postnatal day 45 to 145
Description: as §1
At 40 days postnatal age, mice identified as positive carriers of the SOD1-G93A transgene were randomly assigned to a diazoxide-treatment or control group. The treatment started at postnatal day 45 and lasted until postnatal day 145. […] Each group consists of 30 animals.
The disease onset was determined as the time when the mouse reached its peak body weight.

mice = settings: 100 mg/kg (300 mg/m^2); cited from earlier work
[3] = Blood glucose (hyperglycemia) after daily oral diazoxide in SOD1-G93A transgenic mice; format: in vivo; settings: 4 mg/kg/day (12 mg/m^2/day) and 0.8 mg/kg/day (2.4 mg/m^2/day) p.o., 100 days, glucose at postnatal days 105, 115, 145
Description: as §1
At 40 days postnatal age, mice identified as positive carriers of the SOD1-G93A transgene were randomly assigned to a diazoxide-treatment or control group. The treatment started at postnatal day 45 and lasted until postnatal day 145. […] Each group consists of 3 animals.
Glucose blood levels were measured at postnatal days 105, 115 and 145. Measurements were performed immediately before drug administration (time 0) and at 60 minutes. Blood samples were obtained from the saphenous vein and glucose levels were determined using a glucometer and glucose test strips (Accu-Chek® Aviva, Roche Diagnostics, Indianapolis, Ind., USA). For each group, hyperglycemia was considered when glucose concentration was equal or higher than 176 mg/dl.

[4] = Blood glucose (hyperglycemia) after daily oral diazoxide in C57BL/6J mice; format: in vivo; settings: female C57BL/6J mice; 1 mg/kg (3 mg/m^2) and 0.05 mg/kg (0.15 mg/m^2) p.o. daily; 30 days; glucose at time 0 and 60 minutes
Description: Female C57BL/6J mice, 11 weeks of age, were purchased from Charles River and maintained on a 12:12 hr light:dark cycle, with standard chow and water freely available. The experiments began at 11:00 h. […] From day 4 on, glucose blood levels were measured every 3-4 days during the 30-day treatment period. Measurements were performed immediately before drug administration (time 0) and at 60 minutes. Blood samples were obtained from the saphenous vein and glucose levels were determined using a glucometer and glucose test strips (Accu-Chek® Aviva, Roche Diagnostics, Indianapolis, Ind., USA). For each group, hyperglycemia was considered when glucose concentration was equal or higher than 176 mg/dl.

[5] = system: C57BL/6J-TgN(SOD1-G93A)1Gur^dl transgenic mice; assay: Survival in transgenic mice model for amyotrophic lateral sclerosis; format: in vivo
Description: as §1
At 70 days postnatal age, mice identified as positive carriers of the SOD1-G93A transgene were randomly assigned to a diazoxide-treatment or control group. An additional group composed by wild type C57BL/6J was also used as absolute control for spontaneous deaths. The treatment started at postnatal day 70 and lasted until the animal was sacrificed. […] Each group consists of 14 animals.
Around 75 days of postnatal age treated and not treated mice began to display less exploratory activity and less feeding behaviour as well as a loss of body weight. 20-30 days after, motor deficits were clearly observable, with a continuous loss of muscular mass and body weight. Between postnatal day 137 and 172 animals began to not be able to right themselves within 30 seconds from either side being this their last period of survival. Date and cause of death were recorded for each mouse. For humanitarian reasons, animals were closely monitored and sacrificed as moribund prior to actual death using criteria for severe moribund state. To determine duration of survival reliably and humanely, the moribund state, defined as the inability of mice to right themselves 30 seconds after being placed on a side was used. The moribund mice were considered as “dead”, and were euthanized using carbon dioxide. It is known that when animals reach this “moribund” stage they are unable to survive more than 24 additional hours.

[6] = 0.05 mg/kg/day (0.15 mg/m^2/day) p.o. from postnatal day 70
[7] = 0.1 mg/kg/day (0.3 mg/m^2/day) p.o. from postnatal day 70
[8] = 1 mg/kg/day (3 mg/m^2/day) p.o. from postnatal day 70

Question: Which results are given for CC1=NS(=O)(=O)c2cc(Cl)ccc2N1 [Diazoxide]?
Answer: increase in the amplitude of the tibialis anterior CMAP compared with the vehicle control group ([1]; 0.8 mg/kg/day (2.4 mg/m2/day) p.o.): 17.1%; increase in the amplitude of the tibialis anterior CMAP compared with the vehicle control group ([1]; 4 mg/kg/day (12 mg/m2/day) p.o.): 3.4%; amplitude of the tibialis anterior CMAP compared to the vehicle control group ([1]; 8 mg/kg/day (24 mg/m^2/day) p.o.): no differences; Median Age of Disease Onset ([2]; 0.8 mg/kg/day (2.4 mg/m^2/day) p.o.): 121 days; Median Age of Disease Onset ([2]; 4 mg/kg/day (12 mg/m^2/day) p.o.): 116 days; effect on bupivacaine-induced acute CNS toxicity (latency of convulsions) (mice): reduce the bupivacaine-induced actute CNS toxicity; hyperglycemia (glucose concentration equal or higher than 176 mg/dl) [3]: none of the two doses tested in this study produced hyperglycemia; hyperglycemia (glucose concentration equal or higher than 176 mg/dl) [4]: none of the two doses tested in this study produced hyperglycemia; Median Survival [5, 6]: 153 days; Percentage of mice alive at age of 21 weeks [5, 6]: 78.6%; Percentage of mice alive at age of 21 weeks ([5]; 0.05 mg/kg/day (0.15 mg/m^2/day) p.o. from postnatal day 70, listed as diazoxide): 78.6%; Median Survival [5, 7]: 152 days; Percentage of mice alive at age of 21 weeks [5, 7]: 71.4%; Percentage of mice alive at age of 21 weeks ([5]; 0.1 mg/kg/day (0.3 mg/m^2/day) p.o. from postnatal day 70, listed as diazoxide): 71.4%; Median Survival [5, 8]: 156 days; Percentage of mice alive at age of 21 weeks [5, 8]: 85.7%; Percentage of mice alive at age of 21 weeks ([5]; 1 mg/kg/day (3 mg/m^2/day) p.o. from postnatal day 70, listed as diazoxide): 85.7%

Reference: patent US20130143873A1 (priority 2010, published 2013)
